Laboratory results from US11491244B2, “Labeled fluorocarbon agents for positron emission tomography imaging” (McMaster University, priority 2017, dated 2022).
Entries after “also recorded” stand apart in the source; their conditions may differ. Each block holds one compound with its values, some of them ahead of it.

Experiments:
[1] = Solubility of the fluorinated product in fluorocarbons; format: physicochemical
[2] = neat perfluorocarbon; cited from earlier work
[3] = Stability of [18F]CF3(CF2)7(CH2)3F in water, with and without sonication; format: physicochemical
Description: [^18F]CF3(CF2)7(CH2)3F (125 MBq) in FC-72 (2 mL) was separated into 4 equal samples, and water (0.5 mL) was added to each with stirring. At 0.5, 1, 2 and 4 h, the water layer was removed and the amount of activity measured. In addition, [^18F]CF3(CF2)7(CH2)3F (28 MBq) in FC-72 (130 μL) and DI water (2 mL) was suspended in ice and sonicated using a Branson, Digital S450D Sonifier (Emerson Canada, Markham, ON, Canada) for 10 min at 10% amplitude, using 1 second on-1 second off pulses. The samples were centrifuged and the activity in the aqueous layers were measured using a gamma counter.
The focus shifted to using precursors with a propyl spacer in an attempt to minimize the influence of the electron withdrawing fluorine groups. The mesylate CF3(CF2)7(CH2)3OMs and tosylate CF3(CF2)7(CH2)3OTs were prepared and labelled with [^18F]F^−. The tosylate produced the desired compound (RCY 15%±3; n=5) when the reaction was heated to 75° C. for 30 min. While the overall yield was modest, the product could be easily isolated and separated from impurities by liquid-liquid extraction using FC-72 and water.

- Solubility in FCs [1]: good solubility in FCs
SMILES: FCCC(F)(F)C(F)(F)C(F)(F)C(F)(F)C(F)(F)C(F)(F)C(F)(F)C(F)(F)F [CF3(CF2)7(CH2)2F]

SMILES: FC(F)(F)C(F)(F)C(F)(F)C(F)(F)C(F)(F)C(F)(F)F [PFH, perfluorohexane]
- Water Solubility 25° C. [2]: Insoluble
- Water Solubility 25° C. (bound) [2]: (<25 ppm)

SMILES: FC(F)(F)C(F)(F)C(F)(F)C(F)(F)C(F)(F)C(F)(F)C(F)(F)C(F)(F)Br [PFOB, perfluorooctylbromide]
- Water Solubility 25° C. [2]: Insoluble

- Free [18F]F− by radioHPLC and radioTLC ([3]; FC-72 solution extracted with water periodically over 4 h): no evidence of free [^18F]F^−
SMILES: FC(F)(F)C(F)(F)C(F)(F)C(F)(F)C(F)(F)C(F)(F)C(F)(F)C(F)(F)CCC[18F] [[^18F]CF3(CF2)7(CH2)3F]
- Activity in the aqueous layer post-sonication ([3]; FC-72 and DI water, sonicated without stabilizing surfactants): no activity was found in the aqueous layer
- Loss of fluoride in vitro / in solution ([3]; left in solution over the timeframe of the imaging studies): no signs of loss of fluoride; also recorded: stable with respect to loss of fluoride in vitro
